According to patent US9376440B2, “Pyrrolobenzodiazepines as antiproliferative agents” (MEDIMMUNE LIMITED, priority 2012, dated 2016):
Like-named read-outs stand apart in the source and are kept apart here.

What was measured:
A431 (epidermoid) = assay: MTT cytotoxicity assay, A431; format: cell-based; conditions: Homo sapiens, read-out: IC50 (nM) A431
Method: (§1) The cytotoxicity potential of the compounds of the invention 16c-h was compared with the comparative compounds 16a, 16b and GWL-78 in a number of tumour cell lines and the non-cancer cell line WI38 after 96 hours exposure using the MTT (3-(4,5-Dimethylthiazol-2-yl)-2,5-diphenyltetrazolium bromide) colorimetric assay, as described below.
(§2) A panel of several types of human cancer cell lines including epidermoid (A431), lung (A549), ovarian (A2780) and breast (MCF7 and MDAMB-231), as well as the non-tumour cell line WI38, were used to determine the cytotoxicity of the compounds. The cells were grown in normal conditions at 37° C. under a 5% CO2 humidified atmosphere, either in Dulbecco's Modified Eagle Medium or Modified Eagle Medium (depending on the cell line), supplemented with 10% fetal bovine serum (Biosera, UK), 1% L-glutamine, 1% non-essential amino acids and 0.05% hydrocortisone (Gibco, Invitrogen, USA). Cells were then seeded into 96-well plates in a total volume of 160 μl, and allowed to reach a 30-40% degree of confluence before starting the experiment. The ligands were dissolved in sterilized ultrapure water at a maximum concentration of 100 μM, and serial decimal dilutions prepared. These were added to the cells in a volume of 40 μl. After 96 hours of continuous exposure to each ligand, the cytotoxicity was determined by the MTT (3-(4,5-Dimethylthiazol-2-yl)-2,5-diphenyltetrazolium bromide) (Lancaster Synthesis Ltd, UK) colorimetric assay (Skehan P, S. R., et al., Journal of the National Cancer Institute 1990, 82, 1107). Absorbance was quantified by spectrophotometry at A=570 nm (ELx808, Bio-Tek Instruments, Inc., USA). IC50 values were calculated by a dose-response analysis using the Origin 6.0™ software.

A549 (lung) = assay: MTT cytotoxicity assay, A549; format: cell-based; conditions: Homo sapiens, read-out: IC50 (nM) A549
Method: as §1, §2

A2780 (ovarian) = assay: MTT cytotoxicity assay, A2780; format: cell-based; conditions: Homo sapiens, read-out: IC50 (nM) A2780
Method: as §1, §2

MCF7 (breast) = assay: MTT cytotoxicity assay, MCF7; format: cell-based; conditions: Homo sapiens, read-out: IC50 (nM) MCF7
Method: as §1, §2

MDAMB-231 (breast) = assay: MTT cytotoxicity assay, MDAMB-231; format: cell-based; conditions: Homo sapiens, read-out: IC50 (nM) MDAMB-231
Method: as §1, §2

Mia Paca 2 = assay: MTT cytotoxicity assay, Mia Paca 2; format: cell-based; conditions: Homo sapiens, read-out: IC50 (nM) Mia Paca 2
Method: as §1, §2

WI38 = assay: MTT cytotoxicity assay, non-tumour cell line WI38; format: cell-based; conditions: Homo sapiens, read-out: IC50 (nM) WI38
Method: as §1, §2

primary CLL cells = assay: Annexin V/propidium iodide flow cytometry assay in primary CLL cells; format: cell-based; conditions: CLL cell
Method: The cytotoxicity potential of the compounds of the invention 16c-h was also compared with the comparative compounds 16a, 16b and GWL-78 in a primary CLL cell lines using the Annexin V assay (van Engeland, M, et al., Cytometry 1998, 31, 1-9), as described below.
Freshly isolated peripheral blood CLL cells (1×10^8 mL^−1) were cultured in RPMI medium (Invitrogen, Paisley, U.K.) supplemented with 100 U/mL penicillin, […] streptomycin, and 10% fetal calf serum. The cells were incubated at 37° C. in a humidified 5% CO2 atmosphere in the presence of each compound. All compounds were dissolved in DMSO and were evaluated in serial dilutions against the primary CLL cells. In addition, control cultures were carried out to which no drug was added. The cytotoxic effects of the compounds were quantified using an annexin V/propidium iodide flow cytometry assay (Bender Medsystems, Vienna, Austria). All assays were performed in duplicate, and LD50 values were calculated from sigmoidal dose-response curves using the Prism 6.0 software (Graphpad Software Inc., San Diego, Calif.). The sigmoidal dose-response curves were derived by plotting log [compound concentration] against the percentage apoptosis induced by that concentration. A wide range of concentrations were used to establish the biologically active range for each individual compound.

[1] = MTD (maximum tolerated dose) study, intraperitoneal dosing; format: in vivo, mouse; conditions: Swiss-Webster mice, IP, 400 μg/Kg/day
Method: Initially a small scale study was carried out to determine the MTD (maximum tolerated dose) in Swiss-Webster mice using intraperitoneal dosing (IP). […] As 16f provided a marginally better toxicity profile in the MTD study, it was decided to carry out more extensive in vivo tumour xenograft studies on this molecule.

DNA = conditions: cited from earlier work

Molecule COC(=O)c1cc(NC(=O)c2cc(-c3ccc(NC(=O)CCCOc4cc5c(cc4OC)C(=O)N4CCC[C@H]4C=N5)cc3)cn2C)cn1C [Compound 16c, (S)-methyl 4-(4-(4-(4-(7-methoxy-5-oxo-2,3,5,11a-tetrahydro-1H-pyrrolo[2,1-c][1,4]benzodiazepine-8-yloxy)butanamido)phenyl)-1-methyl-1H-pyrrole-2-carboxamido)-1-methyl-1H-pyrrole-2-carboxylate] has an IC50 (A431 (epidermoid); A-431, 96 h) of 4.6 nM, an IC50 (A549 (lung); A549, 96 h) of 0.019 nM and an IC50 (A2780 (ovarian); A2780, 96 h) of 0.96 nM. It also gave an IC50 (MCF7 (breast); MCF7, 96 h) of 1.7 nM, an IC50 (MDAMB-231 (breast); MDA-MB-231, 96 h) of 2.7 nM and an IC50 (Mia Paca 2; MIA PaCa-2, 96 h) of 0.34 nM. The IC50 (WI38; WI-38, 96 h) was 426 nM and the IC50 (primary CLL cells) was 2.1 nM.

Work on COC(=O)c1cc(-c2ccc(NC(=O)c3cc(NC(=O)CCCOc4cc5c(cc4OC)C(=O)N4CCC[C@H]4C=N5)cn3C)cc2)cn1C [Compound 16e, (S)-methyl 4-(4-(4-(4-(7-methoxy-5-oxo-2,3,5,11a-tetrahydro-1H-pyrrolo[2,1-c][1,4]benzodiazepine-8-yloxy)butanamido)-1-methyl-1H-pyrrole-2-carboxamido)phenyl)-1-methyl-1H-pyrrole-2-carboxylate] yielded an IC50 (A431 (epidermoid); A-431, 96 h) of 0.0056 nM, an IC50 (A549 (lung); A549, 96 h) of 0.056 nM and an IC50 (A2780 (ovarian); A2780, 96 h) of 0.013 nM. The IC50 (Mia Paca 2; MIA PaCa-2, 96 h) was 0.0013 nM, the IC50 (WI38; WI-38, 96 h) was 474 nM and the IC50 (primary CLL cells) was 0.098 nM. For the same molecule, the weight loss [1] was “minor weight loss”.

Work on COC(=O)c1ccc(NC(=O)c2ccc(NC(=O)CCCOc3cc4c(cc3OC)C(=O)N3CCC[C@H]3C=N4)n2C)n1C [GWL-78, reference compound] yielded an IC50 (A431 (epidermoid); A-431, 96 hours exposure, MTT) of 0.55 nM, an IC50 (A549 (lung); A549, 96 hours exposure, MTT) of 6.1 nM and an IC50 (A2780 (ovarian); A2780, 96 hours exposure, MTT) of 0.57 nM. The IC50 (MCF7 (breast); MCF7, 96 hours exposure, MTT) was 0.32 nM, the IC50 (MDAMB-231 (breast); MDA-MB-231, 96 hours exposure, MTT) was 0.12 nM and the IC50 (Mia Paca 2; MIA PaCa-2, 96 hours exposure, MTT) was 2.4 nM. For the same molecule, the IC50 (WI38; WI-38, 96 hours exposure, MTT, non-cancer cell line) was 41.3 nM, the IC50 (primary CLL cells; primary CLL cells, annexin V/propidium iodide, apoptosis, read-out: IC50) was 1.3 nM and the “increase in DNA binding affinity compared to constituent PBD and dipyrrole components” value (DNA) was “up to 50 fold”.

COC(=O)c1cc(NC(=O)c2nc(NC(=O)c3cc(-c4ccc(NC(=O)CCCOc5cc6c(cc5OC)C(=O)N5CCC[C@H]5C=N6)cc4)cn3C)cn2C)cn1C [Compound 16h, (S)-methyl 4-(4-(4-(4-(4-(7-methoxy-5-oxo-2,3,5,11a-tetrahydro-1H-pyrrolo[2,1-c][1,4]benzodiazepine-8-yloxy)butanamido)phenyl)-1-methyl-1H-pyrrole-2-carboxamido)-1-methyl-1H-imidazole-2-carboxamido)-1-methyl-1H-pyrrole-2-carboxylate] showed an IC50 (A431 (epidermoid); A-431, 96 h) of 0.306 nM, an IC50 (A549 (lung); A549, 96 h) of 0.45 nM and an IC50 (MCF7 (breast); MCF7, 96 h) of 0.075 nM. For the same molecule, the IC50 (MDAMB-231 (breast); MDA-MB-231, 96 h) was 0.015 nM, the IC50 (Mia Paca 2; MIA PaCa-2, 96 h) was 0.25 nM and the IC50 (WI38; WI-38, 96 h) was 65.6 nM. It also gave an IC50 (primary CLL cells) of 0.037 nM.

Work on COC(=O)c1cc(NC(=O)c2cc(NC(=O)c3cc(-c4ccc(NC(=O)CCCOc5cc6c(cc5OC)C(=O)N5CCC[C@H]5C=N6)cc4)cn3C)cn2C)cn1C [Compound 16g, (S)-methyl 4-(4-(4-(4-(4-(7-methoxy-5-oxo-2,3,5,11a-tetrahydro-1H-pyrrolo[2,1-c][1,4]benzodiazepine-8-yloxy)butanamido)phenyl)-1-methyl-1H-pyrrole-2-carboxamido)-1-methyl-1H-pyrrole-2-carboxamido)-1-methyl-1H-pyrrole-2-carboxylate] yielded an IC50 (A431 (epidermoid); A-431, 96 h) of 0.86 nM, an IC50 (A549 (lung); A549, 96 h) of 2.3 nM and an IC50 (A2780 (ovarian); A2780, 96 h) of 0.24 nM. It also gave an IC50 (MCF7 (breast); MCF7, 96 h) of 0.31 nM, an IC50 (MDAMB-231 (breast); MDA-MB-231, 96 h) of 0.59 nM and an IC50 (Mia Paca 2; MIA PaCa-2, 96 h) of 0.31 nM. The IC50 (WI38; WI-38, 96 h) was 41.3 nM and the IC50 (primary CLL cells) was 0.96 nM.

COC(=O)c1cc(-c2ccc(NC(=O)c3cc(-c4ccc(NC(=O)CCCOc5cc6c(cc5OC)C(=O)N5CCC[C@H]5C=N6)cc4)cn3C)cc2)cn1C [Compound 16b, (S)-methyl 4-(4-(4-(4-(4-(7-methoxy-5-oxo-2,3,5,11a-tetrahydro-1H-pyrrolo[2,1-c][1,4]benzodiazepine-8-yloxy)butanamido)phenyl)-1-methyl-1H-pyrrole-2-carboxamido)phenyl)-1-methyl-1H-pyrrole-2-carboxylate] showed an IC50 (A431 (epidermoid); A-431, 96 h) of 2.91 nM, an IC50 (A549 (lung); A549, 96 h) of 0.54 nM and an IC50 (A2780 (ovarian); A2780, 96 h) of 0.56 nM. It also gave an IC50 (MCF7 (breast); MCF7, 96 h) of 0.9 nM, an IC50 (MDAMB-231 (breast); MDA-MB-231, 96 h) of 0.46 nM and an IC50 (Mia Paca 2; MIA PaCa-2, 96 h) of 0.35 nM. The IC50 (WI38; WI-38, 96 h) was 159 nM and the IC50 (primary CLL cells) was 4.7 nM.

In the case of COC(=O)c1cc(-c2ccc(NC(=O)CCCOc3cc4c(cc3OC)C(=O)N3CCC[C@H]3C=N4)cc2)cn1C [Compound 16a, (S)-methyl 4-(4-(4-(7-methoxy-5-oxo-2,3,5,11a-tetrahydro-1H-pyrrolo[2,1-c][1,4]benzodiazepine-8-yloxy)butanamido)phenyl)-1-methyl-1H-pyrrole-2-carboxylate], the IC50 (A431 (epidermoid); A-431, 96 h) is reported as 2.31 nM, the IC50 (A549 (lung); A549, 96 h) is reported as 7.5 nM and the IC50 (A2780 (ovarian); A2780, 96 h) is reported as 1.87 nM. The IC50 (MCF7 (breast); MCF7, 96 h) was 1.91 nM, the IC50 (MDAMB-231 (breast); MDA-MB-231, 96 h) was 2.11 nM and the IC50 (Mia Paca 2; MIA PaCa-2, 96 h) was 1.2 nM. It also gave an IC50 (WI38; WI-38, 96 h) of 160 nM and an IC50 (primary CLL cells) of 6.2 nM.

With CCOC(=O)c1nc(NC(=O)c2cc(-c3ccc(NC(=O)CCCOc4cc5c(cc4OC)C(=O)N4CCC[C@H]4C=N5)cc3)cn2C)cn1C [Compound 16d, (S)-ethyl 4-(4-(4-(4-(7-methoxy-5-oxo-2,3,5,11a-tetrahydro-1H-pyrrolo[2,1-c][1,4]benzodiazepine-8-yloxy)butanamido)phenyl)-1-methyl-1H-pyrrole-2-carboxamido)-1-methyl-1H-imidazole-2-carboxylate] the IC50 (A431 (epidermoid); A-431, 96 h) was 0.19 nM, the IC50 (A549 (lung); A549, 96 h) was 0.47 nM and the IC50 (A2780 (ovarian); A2780, 96 h) was 0.15 nM. The IC50 (MCF7 (breast); MCF7, 96 h) was 0.37 nM, the IC50 (MDAMB-231 (breast); MDA-MB-231, 96 h) was 0.45 nM and the IC50 (Mia Paca 2; MIA PaCa-2, 96 h) was 0.11 nM. For the same molecule, the IC50 (WI38; WI-38, 96 h) was 1240 nM and the IC50 (primary CLL cells) was 3 nM.
